Series [1] deals with CTGF mRNA. Briefly: CTGF mRNA knockdown (Taqman RT-PCR) after siNA transfection of human NHLF cells. To be noted: 10 nM siNA, 24 hrs, average of 3 experiments, vs non-targeting control. Type of series: cell-based. The procedure: NHLF (Normal human lung fibroblasts; Lonza cat# CC-2512): Cells were cultured at 37° C. in the presence of 5% CO2 and grown in Fibroblast Basal Medium (Lonza cat# CC-3132) supplemented with 2% FBS and growth factors (provided with the kit) and 100 μg/mL of streptomycin and 100 U/mL penicillin.
(§1) Cells were plated in all wells of a tissue-culture treated, 96-well plate at a final count of 5000 cells/well in […], of the appropriate culture media. The cells were cultured for 24 hours after plating at 37° C. in the presence of 5% CO2.
(§2) After 24 hours, complexes containing siNA and RNAiMax were created as follows: A solution of RNAiMax diluted 33-fold in OPTI-MEM was prepared. In parallel, solutions of the siNAs for testing were prepared to a final concentration of 120 nM in OPTI-MEM. After incubation of RNAiMax/OPTI-MEM solution at room temperature for 5 min, an equal volume of the siNA solution and the RNAiMax solution were added together for each of the siNAs.
(§3) This solution was incubated at room temperature for 20 minutes. After incubation, 20 uL of the solution was added to each of the relevant wells. The final concentration of siNA in each well was 10 nM and the final volume of RNAiMax in each well was 0.3 ul.
(§4) The time of incubation with the RNAiMax-siNA complexes was 24 hours and there was no change in media between transfection and harvesting, unless otherwise indicated.
(§5) RNA was extracted from a 96-well plate using the TaqMan® Gene Expression Cells-to-CT™ Kit (Cat# 4399002) with a modified protocol. Briefly, a 60 uL (1 plate) or 110 uL (2 plates) of the Lysis Solution with DNase I was dispensed into each well of the Lysis Buffer Plate (twin.tec full skirt plate). The lysis buffer and stop plates were stored at 4° C. until the cells were washed.
(§6) The plate was spun at 1100 rpm for 5 minutes. The culture medium was aspirated and discarded from the wells of the culture plate. The lysis was performed automatically using a BioMek FX instrument and method. After the Biomek method was completed, the lysis plate was incubated for 2 min. at room temperature. The lysis plate can be stored for 2 hours at 4° C., or at −20° C. or −80° C. for two months.
(§7) Each well of the reverse transcription plate required 10 uL of 2× reverse transcriptase Buffer, 1 uL of 20× reverse transcription enzyme and 2 uL of nuclease-free water. The reverse transcription master mix was prepared by mixing 2× reverse transcription buffer, 20× reverse transcription enzyme mix, and nuclease-free water. 13 uL of the reverse transcription master mix was dispensed into each well of the reverse transcription plate (semi-skirted). A separate reverse transcription plate was prepared for each cell plate. The plate was loaded onto a Biomek NX or Biomek FX Dual -96 and the Biomek method was run. The program is programmed to automatically added 7 uL of lysate from the cell lysis procedure described above into each well of the reverse transcription plate. The plate is sealed and spun on a centrifuge (1000 rpm for 30 seconds) to settle the contents to the bottom of the reverse transcription plate. The plate is placed in a thermocycler at 37° C. for 60 min, 95° C. for 5 min, and 4° C. until the plate is removed from the thermocycler. Upon removal, if not used immediately, the plate was frozen at −20° C.
(§8) A series of probes and primers were used to detect the various mRNA transcripts of the genes of β-Actin (human cell line only), and of CTGF and GAPDH in mouse and human cell lines. All Taqman probes and primers for the experiments here-in described were supplied as pre-validated sets by Applied Biosystems, Inc. (see Table 3).
The assays were performed on an ABI 7900 instrument, according to the manufacturer's instructions. A TaqMan Gene Expression Master Mix (provided in the Cells-to-CT™, Applied Biosystems, Cat # 4399002) was used. The PCR reactions were carried out at 50° C. for 2 min, 95° C. for 20 min followed by 40 cycles at 95° C. for 15 secs and 60° C. for 1 min. […]

Series [2] deals with CTGF mRNA. The series can be described thus: CTGF mRNA knockdown (Taqman RT-PCR) after siNA transfection of mouse NIH 3T3 cells. As to conditions: mouse NIH3T3 cells, 10 nM siNA, 24 hrs, average of 3 experiments, vs non-targeting control. Type of series: cell-based. As to the method: NIH 3T3 (mouse; ATCC cat# CRL-1658): Cells were cultured at 37° C. in the presence of 5% CO2 and grown in Dulbecco's modified Eagle's medium (DMEM) with 4 mM L-glutamine adjusted to contain 1.5 g/L sodium bicarbonate and 4.5 g/L glucose and supplemented with fetal bovine serum at a final concentration of 10%, 100 μg/mL of streptomycin, and 100 U/mL penicillin.
as §1, §2, §3, §4, §5, §6, §7, §8
The assays were performed on an ABI 7900 instrument, according to the manufacturer's instructions. A TaqMan Gene Expression Master Mix (provided in the Cells-to-CT™, Applied Biosystems, Cat # 4399002) was used. […]
On the technique in general: In qPCR the cycle at which signal appears reflects the starting amount.

[invAb] = inverted abasic unit; m = 2'-O-methyl; r = 2'-OH (RNA); f = 2'-fluoro

As for “48069-DC: siNA duplex; sense SEQ ID NO: 103 B AGuGcAuccGGAcAccuAA TTB; antisense SEQ ID NO: 104 UUAGGuGuccGGAuGcAcuUU (sense AGUGCAUCCGGACACCUAATT; antisense UUAGGUGUCCGGAUGCACUUU; sense: DNA at AGT, 2'-fluoro at CU, [invAb] at 5' end, 3' end, backbone not given here; antisense: sugars from the 5' end rrrmmfmfffmmmfmfmffmm, backbone not given here)”, in the series on CTGF mRNA [1], the “% KD Human” value is given as 45 ± 7%. The “% KD Mouse” value with CTGF mRNA [2] is 55 ± 2%.

With “48064-DC: siNA duplex; sense SEQ ID NO: 93 B AGuGGAGAuGccAGGAGAA TTB; antisense SEQ ID NO: 94 UUCuccuGGcAucuccAcuUU (sense AGUGGAGAUGCCAGGAGAATT; antisense UUCUCCUGGCAUCUCCACUUU; sense: DNA at AGT, 2'-fluoro at CU, [invAb] at 5' end, 3' end, backbone not given here; antisense: sugars from the 5' end rrrffffmmfmfffffmffmm, backbone not given here)”, in the series with CTGF mRNA [1], the “% KD Human” value amounted to 6 ± 6%. In the series with CTGF mRNA [2], the “% KD Mouse” value came to 58 ± 3%.

For the substance “48050-DC: siNA duplex; sense SEQ ID NO: 65 B cuGccuGGuccAGAccAcA TTB; antisense SEQ ID NO: 66 UGUGGucuGGAccAGGcAGUU (sense CUGCCUGGUCCAGACCACATT; antisense UGUGGUCUGGACCAGGCAGUU; sense: DNA at AGT, 2'-fluoro at CU, [invAb] at 5' end, 3' end, backbone not given here; antisense: sugars from the 5' end rrrmmfffmmmffmmmfmmmm, backbone not given here)”, in the series with CTGF mRNA [1], the “% KD Human” value is 3 ± 18%. Also, the “% KD Mouse” value with CTGF mRNA [2] was −13 ± 5%.

Turning to “48075-DC: siNA duplex; sense SEQ ID NO: 115 B ccucAGAcAcuGGuuucGA TTB; antisense SEQ ID NO: 116 UCGAAAccAGuGucuGAGGUU (sense CCUCAGACACUGGUUUCGATT; antisense UCGAAACCAGUGUCUGAGGUU; sense: DNA at AGT, 2'-fluoro at CU, [invAb] at 5' end, 3' end, backbone not given here; antisense: sugars from the 5' end rrrmmmffmmfmfffmmmmmm, backbone not given here)”, in the series on CTGF mRNA [1], the “% KD Human” value is on record as 36 ± 9%. The “% KD Mouse” value with CTGF mRNA [2] stood at 69 ± 2%.

Turning to “48049-DC: siNA duplex; sense SEQ ID NO: 63 B cGuGuGcAccGccAAAGAu TTB; antisense SEQ ID NO: 64 AUCuuuGGcGGuGcAcAcGUU (sense CGUGUGCACCGCCAAAGAUTT; antisense AUCUUUGGCGGUGCACACGUU; sense: DNA at AGT, 2'-fluoro at CU, [invAb] at 5' end, 3' end, backbone not given here; antisense: sugars from the 5' end rrrfffmmfmmfmfmfmfmmm, backbone not given here)”, the “% KD Human” value in the series on CTGF mRNA [1] amounted to 27 ± 2%. Moreover, the “% KD Mouse” value in the series with CTGF mRNA [2] is reported as −9 ± 6%.

Regarding “48072-DC: siNA duplex; sense SEQ ID NO: 109 B AGuGuGcAcuGccAAAGAu TTB; antisense SEQ ID NO: 110 AUCuuuGGcAGuGcAcAcuUU (sense AGUGUGCACUGCCAAAGAUTT; antisense AUCUUUGGCAGUGCACACUUU; sense: DNA at AGT, 2'-fluoro at CU, [invAb] at 5' end, 3' end, backbone not given here; antisense: sugars from the 5' end rrrfffmmfmmfmfmfmffmm, backbone not given here)”, in the series with CTGF mRNA [1], the “% KD Human” value was −8 ± 12%. Further, the “% KD Mouse” value in the series on CTGF mRNA [2] was 14 ± 6%.

On to “48052-DC: siNA duplex; sense SEQ ID NO: 69 B GcGAGGucAuGAAGAAGAA TTB; antisense SEQ ID NO: 70 UUCuucuucAuGAccucGcUU (sense GCGAGGUCAUGAAGAAGAATT; antisense UUCUUCUUCAUGACCUCGCUU; sense: DNA at AGT, 2'-fluoro at CU, [invAb] at 5' end, 3' end, backbone not given here; antisense: sugars from the 5' end rrrffffffmfmmffffmfmm, backbone not given here)”, for which the “% KD Human” value with CTGF mRNA [1] stood at 27 ± 16%. The “% KD Mouse” value with CTGF mRNA [2] is given as 41 ± 4%.

Turning to “48079-DC: siNA duplex; sense SEQ ID NO: 123 B ucAAGAccuGuGccuGccA TTB; antisense SEQ ID NO: 124 UGGcAGGcAcAGGucuuGAUU (sense UCAAGACCUGUGCCUGCCATT; antisense UGGCAGGCACAGGUCUUGAUU; sense: DNA at AGT, 2'-fluoro at CU, [invAb] at 5' end, 3' end, backbone not given here; antisense: sugars from the 5' end rrrfmmmfmfmmmffffmmmm, backbone not given here)”, in the series on CTGF mRNA [1], the “% KD Human” value was determined as 21 ± 11%. The “% KD Mouse” value in the series with CTGF mRNA [2] is 17 ± 6%.

For “48058-DC: siNA duplex; sense SEQ ID NO: 81 B cAGuGGAAcuAcAuuAGuA TTB; antisense SEQ ID NO: 82 UACuAAuGuAGuuccAcuGUU (sense CAGUGGAACUACAUUAGUATT; antisense UACUAAUGUAGUUCCACUGUU; sense: DNA at AGT, 2'-fluoro at CU, [invAb] at 5' end, 3' end, backbone not given here; antisense: sugars from the 5' end rrrfmmfmfrmffffmffmmm, backbone not given here)”, the “% KD Human” value in the series with CTGF mRNA [1] amounted to 79 ± 3%. Moreover, the “% KD Mouse” value in the series on CTGF mRNA [2] amounted to 17 ± 3%.

For “48039-DC: siNA duplex; sense SEQ ID NO: 43 B ccuAucAAGuuuGAGcuuu TTB; antisense SEQ ID NO: 44 AAAGcucAAAcuuGAuAGGUU”, the “% KD Human” value in the series on CTGF mRNA [1] came out at 81 ± 3%. Besides, the “% KD Mouse” value in the series on CTGF mRNA [2] was 21±7%.

As to “48063-DC: siNA duplex; sense SEQ ID NO: 91 B AcAcGAAcucAuuAGAcuA TTB; antisense SEQ ID NO: 92 UAGucuAAuGAGuucGuGuUU (sense ACACGAACUCAUUAGACUATT; antisense UAGUCUAAUGAGUUCGUGUUU; sense: DNA at AGT, 2'-fluoro at CU, [invAb] at 5' end, 3' end, backbone not given here; antisense: sugars from the 5' end rrrfffmmfmmmfffmfmfmm, backbone not given here)”, the “% KD Human” value in the series on CTGF mRNA [1] worked out at 59 ± 3%. Further, the “% KD Mouse” value in the series on CTGF mRNA [2] amounted to 84 ± 2%.

These data come from patent publication US20120016011A1, “RNA Interference Mediated Inhibition of Connective Tissue Growth Factor (CTGF) Gene Expression Using Short Interfering Nucleic Acid (siNA)” (Merck Sharp & Dohme Corp., priority 2009, published 2012).
